Values quoted from earlier work in US20220047856A1, “HYDROGEL FOR IN-VIVO DIRECTIONAL RELEASE OF MEDICATION” (UMC Utrecht Holding B.V., priority 2018, published 2022).

Details: local anaesthetic, conventional bupivacaine

## CCCCN1CCCCC1C(=O)Nc1c(C)cccc1C (stereo not shown) [Bupi, Bupivacaine]
  duration of its effect: approx. 8 hours
